# Reference: patent publication US7026510B2, “Quaternary ammonium salts of omega-aminoalkylamides of r-2-aryl-propionic acids and pharmaceutical compositions containing them” (Dompé S.p.A., priority 2001, dated 2006)
# Tested on: C5a-induced chemotaxis of PMN
# Experiment: Inhibition of C5a-induced chemotaxis of human PMNs (microchamber)
# Assay type: cell-based
# Conditions: Homo sapiens, 1 h, compound C = 10^−6 M, C5a 10^−9 M, 60 min at 37° C.
# Method: The compounds of the invention of formula (I) were evaluated in vitro for their ability to inhibit chemotaxis of polymorphonucleate leukocytes (hereinafter referred to as PMNs) and monocytes induced by the fractions of the complement C5a and C5a-desArg. For this purpose, to isolate the PMNs from heparinized human blood, taken from healthy adult volunteers, mononucleates were removed by means of sedimentation on dextran (according to the procedure disclosed by W. J. Ming et al., J. Immunol., 138, 1469, 1987) and red blood cells by a hypotonic solution. The cell vitality was calculated by exclusion with Trypan blue, whilst the ratio of the circulating polymorphonucleates was estimated on the cytocentrifugate after staining with Diff Quick.
# Human recombinant fractions C5a and C5a-desArg (Sigma) were used as stimulating agents in the chemotaxis experiments, giving practically identical results.
# The lyophilized C5a was dissolved in a volume of HBSS containing 0.2% bovin serum albumin BSA so thus to obtain a stock solution having a concentration of 10^−5 M to be diluted in HBSS to a concentration of 10^−9 M, for the chemotaxis assays.
# In the chemotaxis experiments, the PMNs were incubated with the compounds of the invention of formula (I) for 15′ at 37° C. in an atmosphere containing 5% CO2.
# The chemotactic activity of the C5a was evaluated on human circulating polymorphonucleates (PMNs) resuspended in HBSS at a concentration of 1.5×10^6 PMNs per mL.
# During the chemotaxis assay (according to W. Falket et al., J. Immunol. Methods, 33, 239, 1980) PVP-free filters with a porosity of 5 μm and microchambers suitable for replication were used.
# The compounds of the invention in formula (I) were evaluated at a concentration ranging between 10^−6 and 10^−10 M; for this purpose they were added, at the same concentration, both to the lower pores and the upper pores of the microchamber. The wells in the lower part contain the solution of C5a or the simple carrier, those in the upper part contain the suspension of PMNs.
# Inhibition of C5a-induced chemotactic activity by the individual compounds of the invention of formula (I) was evaluated by incubating the microchamber for the chemotaxis for 60 min at 37° C. in an atmosphere containing 5% CO2.
# By way of example, the inhibition data of the chemotaxis of PMN (C=10^−6 M) of some representative compounds of the invention are reported in the following table: […]
row,Molecule,inhibition at 1 µM [%]
1,"C[C@@H](C(=O)NCCC[N+](C)(C)C)c1ccccc1Nc1c(Cl)cccc1Cl [(R)-{3-{2-[2-(2,6-dichlorophenylamino)-phenyl]-propionylamino}-propyl)-trimethylammonium iodide]",62 ± 3

# Same assay, conditions: compound C = 10^−6 M, C5a 10^−9 M, 60 min at 37° C.
row,Molecule,% INHIBITION (C = 10^−6 M) [%]
1,CC(C)Cc1ccc([C@@H](C)C(=O)NCCC[N+]2(C)CCCCC2)cc1.[I-] [R(−)-{3-[2-(4′-isobutylphenyl)-propionylamino]-propyl}-1-methyl-piperidinium iodide],24 ± 4
2,"CC(C)Cc1ccc([C@@H](C)C(=O)NCCC[N+](C)(C)Cc2ccccc2)cc1.[I-] [R(−)-{3-[2-(4′-isobutylphenyl)-propionylamino]-propyl}-(N-benzyl)-N,N-dimethylammonium iodide]",22 ± 4
3,"CC(C)Cc1ccc([C@@H](C)C(=O)NCCC[N+](C)(C)CC2CCCCC2)cc1.CS(=O)(=O)[O-] [R(−)-{3-[2-(4′-isobutylphenyl)-propionylamino]-propyl}-N-cyclohexylmethyl-N,N-dimethyl-ammonium metaneosulfonate]",57 ± 4
4,CC(C)Cc1ccc([C@@H](C)C(=O)NCCC[N+](C)(C)C)cc1.[I-] [R(−)-{3-[2-(4′-isobutylphenyl)-propionylamino]-propyl}-trimetilammonium iodide],53 ± 6
5,"R(−)-2-[(4′-isobutylphenyl)-propionylamino]-1,1-dimethylpiperidinium iodide",18 ± 9
